The source of these data is patent US8476295B2, “Bridged bicyclic RHO kinase inhibitor compounds, composition and use” (Inspire, priority 2009, dated 2013).

Like-named read-outs stand apart in the source and are kept apart here.

The target of one assay is Rho kinase 1 (Homo sapiens (Human), UniProt Q13464). The assay can be described thus: biochemical.
Another assay addresses Rho kinase 2 (Homo sapiens (Human), UniProt O75116). The assay can be described thus: Rho Kinase Inhibition Assay (IMAP fluorescence polarization), Rho kinase 2. The class given is biochemical. The following applies: isolated enzyme, 10 μM ATP, 60 minutes at room temperature. For orientation: In fluorescence polarisation assays a small probe gives low polarisation when free and higher when bound to something large.

[1] abbreviates: Rho kinase 1 Ki, isolated enzyme, 10 μM ATP, 60 minutes at room temperature.

Sequence of Rho kinase 1 (Q13464 17-535): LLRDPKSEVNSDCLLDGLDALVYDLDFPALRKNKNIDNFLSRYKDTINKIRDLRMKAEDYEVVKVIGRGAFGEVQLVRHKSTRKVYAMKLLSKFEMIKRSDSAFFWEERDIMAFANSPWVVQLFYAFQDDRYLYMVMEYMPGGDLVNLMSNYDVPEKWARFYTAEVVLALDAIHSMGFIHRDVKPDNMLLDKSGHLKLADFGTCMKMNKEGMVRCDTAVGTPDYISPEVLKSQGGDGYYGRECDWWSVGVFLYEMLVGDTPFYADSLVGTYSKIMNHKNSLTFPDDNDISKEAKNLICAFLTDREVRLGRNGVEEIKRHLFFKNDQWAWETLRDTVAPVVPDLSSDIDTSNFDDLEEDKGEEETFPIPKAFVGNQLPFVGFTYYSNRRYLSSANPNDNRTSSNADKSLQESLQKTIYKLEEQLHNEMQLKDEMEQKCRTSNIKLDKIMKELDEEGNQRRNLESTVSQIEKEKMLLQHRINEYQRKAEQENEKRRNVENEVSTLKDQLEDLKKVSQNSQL
Sequence of Rho kinase 2 (O75116 11-552): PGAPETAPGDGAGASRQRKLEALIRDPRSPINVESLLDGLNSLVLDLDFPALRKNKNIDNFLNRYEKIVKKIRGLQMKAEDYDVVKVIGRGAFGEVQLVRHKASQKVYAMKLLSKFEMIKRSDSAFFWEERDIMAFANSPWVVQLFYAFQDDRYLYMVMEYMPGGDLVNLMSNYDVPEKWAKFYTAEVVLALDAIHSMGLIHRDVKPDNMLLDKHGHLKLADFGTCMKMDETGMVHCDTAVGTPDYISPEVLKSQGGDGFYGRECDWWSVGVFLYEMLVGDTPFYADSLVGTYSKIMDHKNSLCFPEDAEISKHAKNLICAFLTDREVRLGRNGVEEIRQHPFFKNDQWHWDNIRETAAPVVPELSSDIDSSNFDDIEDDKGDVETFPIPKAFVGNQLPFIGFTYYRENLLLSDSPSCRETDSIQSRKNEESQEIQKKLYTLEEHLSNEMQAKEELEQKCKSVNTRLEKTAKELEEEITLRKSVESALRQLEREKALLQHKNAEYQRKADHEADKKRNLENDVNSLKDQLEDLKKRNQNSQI

Turning to `c1ccc(CN2C[C@@H]3CC[C@H]2[C@@H]3Nc2ccc3[nH]ncc3c2)cc1` (racemic) [Compound 3.1.01, N-((1SR,4SR,7RS)-2-benzyl-2-azabicyclo[2.2.1]heptan-7-yl)-1H-indazol-5-amine], the Ki (as a rule, a measure of affinity in units of concentration, obtained from inhibition or displacement) was 976 nM on Rho kinase 1 and 464 nM on Rho kinase 2 (read-out: Rho kinase 2 Ki).

Consider `c1ccc(CN2C3CCC2CC(Nc2ccc4[nH]ncc4c2)C3)cc1` (single isomer, unassigned) [Compound 1.1.01, N-((1RS,3rs,5SR)-8-benzyl-8-azabicyclo[3.2.1]octan-3-yl)-1H-indazol-5-amine], for which the values for the Ki at Rho kinase 1 (setting [1]) and on Rho kinase 2 (Rho kinase 2 Ki) were 72 nM and 29 nM, respectively. On the same counts, the results for `c1ccc(CN2C3CCC2CC(Nc2ccc4[nH]ncc4c2)C3)cc1` (single isomer, unassigned) [Compound 2.1.01, N-((1RS,3sr,5SR)-8-benzyl-8-azabicyclo[3.2.1]octan-3-yl)-1H-indazol-5-amine] are 806 nM and 220 nM.

In the case of `Cc1ccc(CN2C3CCC2CC(Nc2ccc4[nH]ncc4c2)C3)cc1` (stereo not drawn) [Compound 1.1.02, N-((1RS,3rs,5SR)-8-(4-methylbenzyl)-8-azabicyclo[3.2.1]octan-3-yl)-1H-indazol-5-amine], the Ki is 91 nM at Rho kinase 1 (setting [1]) and 20 nM on Rho kinase 2 (Rho kinase 2 Ki). In the case of `OCCOc1cccc(CN2C3CCC2CC(Nc2ccc4[nH]ncc4c2)C3)c1` (stereo not drawn) [Compound 1.1.03, 2-(3-(((1RS,3rs,5SR)-3-((1H-indazol-5-yl)amino)-8-azabicyclo[3.2.1]octan-8-yl)methyl)phenoxy)ethanol], on Rho kinase 2 (Rho kinase 2 Ki), the Ki was 21 nM. Take `Cc1ccc(CN2C3CCC2CC(Nc2ccc4[nH]ncc4c2)C3)cc1OCCO` (stereo not drawn) [Compound 1.1.04, 2-(5-(((1RS,3rs,5SR)-3-((1H-indazol-5-yl)amino)-8-azabicyclo[3.2.1]octan-8-yl)methyl)-2-methylphenoxy)ethanol]: the Ki on Rho kinase 1 (setting [1]) was found to be 35 nM; at Rho kinase 2 (Rho kinase 2 Ki), 10 nM.
